Data on 15 molecules can be found in patent US8901118B2, “Compounds and methods for kinase modulation, and indications therefor” (Plexxikon Inc., priority 2010, dated 2014).

A value given as a limit tells only on which side of the number the result lay.

Holding throughout (format): cell-based
Experiment [1] addresses T1, BCR-NTRK2 BaF3 cells (Homo sapiens, UniProt Q16620).
T1 construct: fused on or other part: P11274 (Breakpoint cluster region protein)
Briefly: BaF3 BCR-NTRK2 cell proliferation assay (ATPlite). The settings on record: read-out: Inhibition of Cell Proliferation IC50, BCR/BaF3 TrkB. In outline:
(§1)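 Cells are plated overnight: BaF3 at 10,000/well in G418 medium without WEHI/IL-3, MV-4-11 at 25,000/well in IMDM with 10% FBS. An 8-point 1:3 compound titration (10 μM top) is then added, and plates are incubated 3 days at 37 °C before ATPlite readout and IC50 determination.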
On the technique in general: ATP-based viability assays read luminescence as a measure of living cells.

Experiment [2] has as its target T2, BCR-NTRK1 BaF3 cells (Homo sapiens, UniProt P04629).
T2 construct: fused on or other part: P11274 (Breakpoint cluster region protein)
Briefly: BaF3 BCR-NTRK1 cell proliferation assay (ATPlite). The settings on record: read-out: Inhibition of Cell Proliferation IC50, BCR/BaF3 TrkA. In short, it runs like this:
as §1

The target in experiment [3] is T3, BCR-KIT BaF3 cells (Homo sapiens, UniProt P10721).
T3 construct: fused on or other part: P11274 (Breakpoint cluster region protein)
Briefly: BaF3 BCR-KIT cell proliferation assay (ATPlite). The settings on record: read-out: Inhibition of Cell Proliferation IC50, BCR/BaF3 Kit. In short, it runs like this: as §1

T3 sequence (P10721 589-937): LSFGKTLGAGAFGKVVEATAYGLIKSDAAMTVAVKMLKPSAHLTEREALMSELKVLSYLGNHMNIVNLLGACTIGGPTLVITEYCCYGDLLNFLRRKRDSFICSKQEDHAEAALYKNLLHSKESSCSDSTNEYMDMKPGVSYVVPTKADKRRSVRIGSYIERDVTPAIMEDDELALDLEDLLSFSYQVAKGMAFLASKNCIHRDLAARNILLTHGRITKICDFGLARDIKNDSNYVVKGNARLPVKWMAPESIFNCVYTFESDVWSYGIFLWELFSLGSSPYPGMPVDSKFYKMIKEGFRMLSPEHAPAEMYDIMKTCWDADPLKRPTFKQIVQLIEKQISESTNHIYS
T1 sequence (Q16620 538-807): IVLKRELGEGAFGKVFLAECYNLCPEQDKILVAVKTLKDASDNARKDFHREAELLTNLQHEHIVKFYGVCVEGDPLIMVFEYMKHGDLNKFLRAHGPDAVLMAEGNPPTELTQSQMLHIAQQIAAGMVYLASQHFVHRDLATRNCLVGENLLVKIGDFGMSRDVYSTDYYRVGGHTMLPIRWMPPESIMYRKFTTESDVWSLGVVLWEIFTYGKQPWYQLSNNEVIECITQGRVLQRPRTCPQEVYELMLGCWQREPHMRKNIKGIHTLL
T2 sequence (P04629 510-781): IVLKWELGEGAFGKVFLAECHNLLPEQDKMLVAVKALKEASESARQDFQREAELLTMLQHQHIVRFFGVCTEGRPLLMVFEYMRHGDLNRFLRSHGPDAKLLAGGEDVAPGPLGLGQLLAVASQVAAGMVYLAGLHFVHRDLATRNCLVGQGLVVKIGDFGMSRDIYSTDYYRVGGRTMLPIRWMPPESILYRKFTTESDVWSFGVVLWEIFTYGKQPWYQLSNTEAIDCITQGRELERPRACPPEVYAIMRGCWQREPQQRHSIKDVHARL

Take `Cc1ccc(Nc2ccc(C(=O)c3c[nH]c4ncnc(NC5CCCCC5)c34)c(F)n2)cn1` [Compound P-4111, [4-(cyclohexylamino)-7H-pyrrolo[2,3-d]pyrimidin-5-yl]-[2-fluoro-6-[(6-methyl-3-pyridyl)amino]-3-pyridyl]methanone]: the results for the IC50 in experiment [1], in experiment [2] and in experiment [3] were less than 10 nM, less than 10 nM and less than 1000 nM, respectively.

On to `Cc1ccc(Nc2ccc(C(=O)c3c[nH]c4ncnc(NCC(F)(F)F)c34)c(F)n2)cn1` [Compound P-4112, [2-fluoro-6-[(6-methyl-3-pyridyl)amino]-3-pyridyl]-[4-(2,2,2-trifluoroethylamino)-7H-pyrrolo[2,3-d]pyrimidin-5-yl]methanone], for which the IC50 in experiment [1] is less than 100 nM; in experiment [2], less than 100 nM; in experiment [3], more than 1000 nM.

As to `CNc1ncnc2[nH]cc(C(=O)c3ccc(Nc4ccc(C)nc4)nc3F)c12` [Compound P-4115, [2-fluoro-6-[(6-methyl-3-pyridyl)amino]-3-pyridyl]-[4-(methylamino)-7H-pyrrolo[2,3-d]pyrimidin-5-yl]methanone], the IC50 in experiment [1] was less than 100 nM; in experiment [2] it was less than 100 nM; in experiment [3], less than 1000 nM.

Turning to `CCc1ccc(Nc2ccc(C(=O)c3c[nH]c4ncnc(NC5CCOCC5)c34)c(F)n2)cn1` [Compound P-4116, [6-[(6-ethyl-3-pyridyl)amino]-2-fluoro-3-pyridyl]-[4-(tetrahydropyran-4-ylamino)-7H-pyrrolo[2,3-d]pyrimidin-5-yl]methanone], the IC50 is less than 10 nM in experiment [1], less than 10 nM in experiment [2] and less than 100 nM in experiment [3].

Turning to `CCc1ccc(Nc2ccc(C(=O)c3c[nH]c4ncnc(NC(C)C)c34)c(F)n2)cn1` [Compound P-4117, [6-[(6-ethyl-3-pyridyl)amino]-2-fluoro-3-pyridyl]-[4-(isopropylamino)-7H-pyrrolo[2,3-d]pyrimidin-5-yl]methanone], the IC50 was less than 10 nM in experiment [1], less than 10 nM in experiment [2] and less than 100 nM in experiment [3].

On to `CCc1ccc(Nc2ccc(C(=O)c3c[nH]c4ncnc(NCC5CC5)c34)c(F)n2)cn1` [Compound P-4118, [4-(cyclopropylmethylamino)-7H-pyrrolo[2,3-d]pyrimidin-5-yl]-[6-[(6-ethyl-3-pyridyl)amino]-2-fluoro-3-pyridyl]methanone], for which the figures for the IC50 in experiment [1], in experiment [2] and in experiment [3] were less than 10 nM, less than 10 nM and less than 100 nM, respectively.

For the molecule `CCc1ccc(Nc2ccc(C(=O)c3c[nH]c4ncnc(NCCOC)c34)c(F)n2)cn1` [Compound P-4119, [6-[(6-ethyl-3-pyridyl)amino]-2-fluoro-3-pyridyl]-[4-(2-methoxyethylamino)-7H-pyrrolo[2,3-d]pyrimidin-5-yl]methanone], the IC50 is less than 10 nM in experiment [1], less than 10 nM in experiment [2] and less than 100 nM in experiment [3].

Consider `CCc1ccc(Nc2ccc(C(=O)c3c[nH]c4ncnc(NCC(F)(F)F)c34)c(F)n2)cn1` [Compound P-4120, [6-[(6-ethyl-3-pyridyl)amino]-2-fluoro-3-pyridyl]-[4-(2,2,2-trifluoroethylamino)-7H-pyrrolo[2,3-d]pyrimidin-5-yl]methanone], for which the IC50 is less than 10 nM in experiment [1], less than 10 nM in experiment [2] and less than 1000 nM in experiment [3].

Consider `CCc1ccc(Nc2ccc(C(=O)c3c[nH]c4ncnc(NCC(C)C)c34)c(F)n2)cn1` [Compound P-4121, [6-[(6-ethyl-3-pyridyl)amino]-2-fluoro-3-pyridyl]-[4-(isobutylamino)-7H-pyrrolo[2,3-d]pyrimidin-5-yl]methanone], for which the IC50 is less than 10 nM in experiment [1], less than 10 nM in experiment [2] and less than 100 nM in experiment [3].

`CCCNc1ncnc2[nH]cc(C(=O)c3ccc(Nc4ccc(CC)nc4)nc3F)c12` [Compound P-4122, [6-[(6-ethyl-3-pyridyl)amino]-2-fluoro-3-pyridyl]-[4-(propylamino)-7H-pyrrolo[2,3-d]pyrimidin-5-yl]methanone]: the IC50 was less than 10 nM in experiment [1], less than 10 nM in experiment [2] and less than 100 nM in experiment [3].

`CCNc1ncnc2[nH]cc(C(=O)c3ccc(Nc4ccc(CC)nc4)nc3F)c12` [Compound P-4123, [4-(ethylamino)-7H-pyrrolo[2,3-d]pyrimidin-5-yl]-[6-[(6-ethyl-3-pyridyl)amino]-2-fluoro-3-pyridyl]methanone]: the IC50 is less than 10 nM in experiment [1], less than 10 nM in experiment [2] and less than 100 nM in experiment [3].

For `CCc1ccc(Nc2ccc(C(=O)c3c[nH]c4ncnc(NC)c34)c(F)n2)cn1` [Compound P-4124, [6-[(6-ethyl-3-pyridyl)amino]-2-fluoro-3-pyridyl]-[4-(methylamino)-7H-pyrrolo[2,3-d]pyrimidin-5-yl]methanone], the results for the IC50 in experiment [1], in experiment [2] and in experiment [3] were less than 10 nM, less than 10 nM and less than 100 nM, respectively.

On to `CCc1ccc(Nc2ccc(C(=O)c3c[nH]c4ncnc(NC5CC5)c34)c(F)n2)cn1` [Compound P-4125, [4-(cyclopropylamino)-7H-pyrrolo[2,3-d]pyrimidin-5-yl]-[6-[(6-ethyl-3-pyridyl)amino]-2-fluoro-3-pyridyl]methanone], for which the values for the IC50 in experiment [1], in experiment [2] and in experiment [3] were less than 10 nM, less than 10 nM and less than 100 nM, respectively.

For `COc1ccc(Nc2ccc(C(=O)c3c[nH]c4ncnc(NC5CC5)c34)c(F)n2)cn1` [Compound P-4126, [4-(cyclopropylamino)-7H-pyrrolo[2,3-d]pyrimidin-5-yl]-[2-fluoro-6-[(6-methoxy-3-pyridyl)amino]-3-pyridyl]methanone], the IC50 in experiment [1] is less than 10 nM; in experiment [2], less than 10 nM; in experiment [3] it was less than 100 nM.

Regarding `Fc1cc(Cc2c[nH]c3ncnc(NC4CC4)c23)cnc1NC1CCC(F)(F)CC1` [Compound P-4127, N-cyclopropyl-5-[[6-[(4,4-difluorocyclohexyl)amino]-5-fluoro-3-pyridyl]methyl]-7H-pyrrolo[2,3-d]pyrimidin-4-amine], the IC50 in experiment [1] was less than 100 nM; in experiment [2] it was less than 1000 nM; in experiment [3] it was less than 100 nM.
